Measurements reported in paper PMC8583936, “Machine Learning Assisted Approach for Finding Novel High Activity Agonists of Human Ectopic Olfactory Receptors” (International Journal of Molecular Sciences, 2021).
Values joined by “and” are separate entries in the source; they are usually repeats but may differ in a detail not shown here. Equal values may be shown once.

Molecular target: T1, OR1A1 (Homo sapiens, UniProt Q9P1Q5)
T1 sequence (Q9P1Q5 1-309): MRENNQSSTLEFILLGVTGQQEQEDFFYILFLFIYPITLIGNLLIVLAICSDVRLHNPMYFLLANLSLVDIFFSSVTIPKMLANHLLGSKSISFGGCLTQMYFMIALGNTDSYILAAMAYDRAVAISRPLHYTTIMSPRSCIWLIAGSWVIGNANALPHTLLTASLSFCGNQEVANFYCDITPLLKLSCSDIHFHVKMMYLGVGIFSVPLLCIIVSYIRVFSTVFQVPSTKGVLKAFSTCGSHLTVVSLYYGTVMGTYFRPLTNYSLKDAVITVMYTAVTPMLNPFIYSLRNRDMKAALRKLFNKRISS
Test: Dual-Glo luciferase reporter gene assay, OR1A1 in Hana3A cells
Type: cell-based
Set-up: The open reading frames of ORs were amplified using Phusion polymerase; Rho-tag (first 20 amino acids of human rhodopsin) (N); expressed in transfected cells; host or cells: Hana3A cells (derived from HEK293T), pCI vector; co-transfected with human RTP1S, M3 receptor, CRE-Luc and SV40-RL
Conditions: for activation of OR1A1 in dose-responses: Figure 4A; for Bottom / normilazed value = (L-400/R-400) / Top / EC50 / LogEC50: OR1A1; for Bottom / Top: log(agonist) vs. response (three parameters), normalized (L-400/R-400); for normilazed value = (L-400/R-400) / LogEC50: log[molecule]; for normilazed value = (L-400/R-400): three replicates; for LogEC50: M
Experimental: Hana3A cells were maintained in minimal essential medium containing 10% FBS (vol/vol) with penicillin-streptomycin and amphotericin B (1/200 each vol/vol) at 37 °C and 5% CO2. Hana3A cells are derived from HEK293T [57] and are optimized for OR studies as shown in several studies, compared to earlier OR expression in Sf9 insect cells in Gat et al., and in Xenopus oocytes, COS-7, PC12h and CHO-K1 cells in Katada et al..
The Dual-Glo luciferase assay system (Promega, Madison, WI, USA) was used to evaluate the functionality of wild-type OR1A1 and OR2W1 in an in vitro system. The open reading frames of ORs were amplified using Phusion polymerase (Thermo Fisher Scientific, Waltham, MA, USA). Amplified fragments were cloned into pCI expression vector (Promega, Madison, WI, USA) containing the sequence encoding the first 20 amino acids of human rhodopsin (Rho-tag) at N-terminal. Hana3A cells have been cultured and plated the day before transfection with 6 mL at 1/10 of a 100% confluence 100 mm plate into 96-well plates coated with poly D-lysine. After overnight incubation, the required genes were transfected using, for each plate, 5 ng SV40-RL, 10 ng CRE-Luc, 5 ng human RTP1S [72], 2.5 ng M3 receptor [73] and 5 ng of receptor (OR1A1, OR2W1 or empty vector Rho-pCI) plasmid. After around 18 h of transfection, cells were stimulated during 3.5 h by 25 µL of odorant diluted in CD293 + 1% glutamine + 30 µM CuCl2. Odorants were obtained from Sigma Aldrich (St. Louis, MO, USA) and diluted at 1 M concentration in DMSO as stock solutions. […] The luminescence of Firefly (Luc) and Renilla (Rluc) luciferase, were then sequentially monitored by injecting the corresponding substrate following the supplier’s protocol. The activity in each well was normalized as (Luc-400)/(Rluc-400). The response of the receptor was also normalized to its basal activity as (NLX/NL0)-1 where NL0 is the normalized luminescence value at 0 µM of odorant and NLX the value at X µM. […] Raw results were first analyzed with Excel (Microsoft Corporation, Albuquerque, NM, USA) and dose response curves, max efficacy and EC50 have been determined with GraphPrism 6 software (GraphPad Software, La Jolla, CA, USA). Areas under the curves (AUC) were calculated in Excel by summing all the OR responses at different concentrations for each odorant.

[1] = three-parameter fit, 95% CI (profile likelihood)

SMILES | activation of OR1A1 in dose-responses | Bottom (95% CI (profile likelihood)) | normilazed value = (L-400/R-400) (M = -3.5) | normilazed value = (L-400/R-400) (M = -3.75) | normilazed value = (L-400/R-400) (M = -4) | normilazed value = (L-400/R-400) (M = -4.25) | normilazed value = (L-400/R-400) (M = -4.5) | normilazed value = (L-400/R-400) (M = -4.75) | normilazed value = (L-400/R-400) (M = -5) | normilazed value = (L-400/R-400) (M = -5.25) | normilazed value = (L-400/R-400) (M = -5.5) | normilazed value = (L-400/R-400) (M = -5.75) | normilazed value = (L-400/R-400) (M = -6) | Top (95% CI (profile likelihood)) | EC50 [1] | LogEC50 [1] | EC50 (95% CI)
c1cnc2c(c1)ccc1cccnc12 [1,10-Phenanthroline] | did not activate OR1A1 | 1.108 to 2.224 | -5 and -0.03226 and 0.3636 | 0.5532 and 0.08791 and 0.1429 | -3.909 and 0.2121 and 0.03846 | 1.0814 and 2.077 and 1.521 | 1.468 and 1.358 and 1.008 | 0.8876 and 1.015 and 1.576 | 1.356 and 1.5085 and 1.392 | 1.691 and 1.671 and 2.1214 | 1.201 and 1.5718 and 1.847 | 1.3268 and 1.745 and 1.5675 | 1.452 and 1.389 and 1.692 | – | – | – | –
C=C(C)[C@H]1CC=C(C)CC1 [Dipentene] | weak activator | 0.9206 to 2.078 | 15.0728 and 8.79 and 8.6943 | 10.4582 and 8.9424 and 9.316 | 8.181 and 7.514 and 8.062 | 7.841 and 5.647 and 6.278 | 5.494 and 4.914 and 4.401 | 3.7707 and 3.641 and 3.368 | 2.7632 and 2.301 and 2.9635 | 2.721 and 2.59 and 2.766 | 2.326 and 2.0399 and 1.767 | 1.87 and 1.732 and 1.479 | 1.6 and 1.531 and 1.2039 | 11.22 to 15.68 | 44.9 to 133 µM | -4.348 to -3.874 | –
CCOC(=O)Cc1cccc(Br)c1 [Ethyl 2-(3-bromophenyl)acetate] | able to activate OR1A1 | 0.4401 to 2.007 | 9.12 and 11.0639 and 10.393 | 11.9065 and 11.6251 and 11.7476 | 13.3839 and 12.372 and 11.9409 | 8.912 and 11.2901 and 12.3912 | 7.943 and 8.382 and 10.0109 | 5.611 and 6.9779 and 6.123 | 5.045 and 5.149 and 4.806 | 3.622 and 3.689 and 4.46 | 2.564 and 3.159 and 3.452 | 2.1766 and 2.696 and 2.931 | 1.855 and 2.338 and 2.234 | 11.66 to 13.55 | 11.5 to 24.4 µM | -4.940 to -4.613 | 11.5 to 24.4 µM
